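Growth conditions: 96-well plates. Treatment: test compound, 48 hours, 5 concentrations. Analysis: linear interpolation between bracketing concentrations; unreached endpoints set to highest concentration. The concentration for full growth arrest is given as TGI.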
Key:
Test in all cases: growth of human tumour cells (NCI), 48 h
ACHN renal = test system: ACHN renal
EKVX NSCLC = test system: EKVX NSCLC
HCT-116 colon = test system: HCT-116 colon
HOP-92 NSCLC = test system: HOP-92 NSCLC
KM12 colon = test system: KM12 colon
LOX IMVI melanoma = test system: LOX IMVI melanoma
M14 melanoma = test system: M14 melanoma
MDA-MB-435 = test system: MDA-MB-435
NCI-H522 lung = test system: NCI-H522 lung
OVCAR-4 ovarian = test system: OVCAR-4 ovarian
RPMI-8226 leukemia = test system: RPMI-8226 leukemia
SNB-19 CNS = test system: SNB-19 CNS
SR leukemia = test system: SR leukemia
U251 CNS = test system: U251 CNS
K-562 leukemia = test system: K-562 leukemia

SMILES	TGI (ACHN renal) [µM]	TGI (EKVX NSCLC) [µM]	TGI (HCT-116 colon) [µM]	TGI (HOP-92 NSCLC) [µM]	TGI (KM12 colon) [µM]	TGI (LOX IMVI melanoma) [µM]	TGI (M14 melanoma) [µM]	TGI (MDA-MB-435) [µM]	TGI (NCI-H522 lung) [µM]	TGI (OVCAR-4 ovarian) [µM]	TGI (RPMI-8226 leukemia) [µM]	TGI (SNB-19 CNS) [µM]	TGI (SR leukemia) [µM]	TGI (U251 CNS) [µM]	TGI (K-562 leukemia) [µM]
O=c1[nH]c2nc3ccccc3c(=O)n2/c1=C/c1ccccc1	> 100	> 100	> 100	> 100	> 100	> 100	> 100	59	> 100	> 100	> 100	55.9	> 100	> 100	
CCC1C(NC(=O)OC)C(=O)N1[C@@H](C)c1ccccc1 (stereo not given in full)	> 100	> 100	> 100	> 100	> 100	> 100	> 100	> 100	> 100	> 100	> 100	> 100	> 100	> 100	> 100
CN(C)c1ccc(N=C2N=C(Nc3ccccc3)C(=Nc3ccccc3)S2)cc1	> 100	> 100	> 100	> 100	> 100	> 100	> 100	> 100	> 100	> 100		> 100	> 100		
Fc1cc2nc3n(c2cc1F)C(c1c(F)cccc1F)SC3 (stereo not given)	> 100		54.1	> 100	> 100	> 100	81.5	> 100	> 100	> 100	> 100	> 100	> 100	> 100	
O=C(CCN1CCCCC1)Nc1ccc2c(c1)C(=O)c1ccc(NC(=O)CCN3CCCCC3)cc1C2=O	23.9	30.2	3.2	29.2	3.26	3.43	10.1	3.25	32.7	8.45	14.6	10.1	6.49	9.97	7.64
O=C1N[C@H]2C(=O)c3c(Br)sc(Br)c3[C@H]2O1	18.1	13	7.33	28.9	> 55.5	11.4	10.4	26.7	3.22	31.3	> 45	30.7	6.27	8.87	> 21.7
O=S(Cc1ccccc1)c1ccccc1Cn1cccc1 (stereo not given)	> 100	> 100	> 100	> 100	> 100	> 100	> 100	> 100		> 100	> 100	> 100	83.4	> 100	> 100
COC(=O)C1(Cc2ccccc2)Cc2ccccc2C1O (stereo not given)	> 100	> 100	> 100		> 100	> 100		> 100	> 100	> 100	> 100		> 100	> 100	> 100
O=C(N/C(=C\c1ccccc1)c1nc2ccccc2c(=O)o1)c1ccccc1	> 100	> 100	> 100	> 100	> 100	> 100	> 100	> 100	> 100	> 100	> 100	> 67.1	> 100	> 83.3	> 100
S=C(NCCc1ccccn1)N/N=C(\c1ccccc1)c1ccccn1	17.9	> 71.6	> 100	> 55.7	> 91.5	36.1	> 100	> 100	> 100	54.7	> 58	> 100	> 57.7	> 100	> 100
CCS1=C2C(=O)CC(C)(C)CC2=Nc2ccccc21 (stereo not given)	> 100	> 100	> 100	> 100	> 100	> 100	> 100	> 100	> 100	> 100	> 100	> 100	> 100	> 100	> 100
Cc1cc(C)c2c(=O)n(CC(O)CN(Cc3ccccc3)CC(O)Cn3sc4nc(C)cc(C)c4c3=O)sc2n1 (stereo not given)	30.1	44.5	31.5	31.7	31.4	33.9	32.9	31.4	22	32.4	> 100	34.7	> 100	30.6	> 100
CC(NNC(=O)c1ccncc1)c1ccccc1 (stereo not given)	> 100	> 100	> 100	> 100	> 100	> 100	> 100	> 100		> 100	> 100	> 100	> 100	> 100	> 100
Cn1cc(NC(=O)Nc2cc(C(=O)Nc3cc(C(=O)Nc4ccc5cc(S(=O)(=O)O)cc(S(=O)(=O)O)c5c4)n(C)c3)n(C)c2)cc1C(=O)Nc1cc(C(=O)Nc2ccc3cc(S(=O)(=O)O)cc(S(=O)(=O)O)c3c2)n(C)c1	> 100	> 100	> 100	> 100	> 100	> 100	> 100	> 100	> 100	> 100	> 100	> 100	> 100	> 100	> 100
Cc1n[nH]c(=O)n1C1CC1	> 100	> 100	> 100	> 100	> 100	> 100	> 100	> 100	> 100	> 100	> 100	> 100	> 100	> 100	> 100
O=C(C[C@@H]1CCCN2CCCC[C@H]12)N1c2ccccc2Sc2ccc(Cl)cc21	27.2	33.8	29.5		27.6	27.3	17.9	29.3	26.9		54.8	31.1	53	24.4	35.2

SMILES	TGI (ACHN renal) [µM]	TGI (EKVX NSCLC) [µM]	TGI (HCT-116 colon) [µM]	TGI (HOP-92 NSCLC) [µM]	TGI (KM12 colon) [µM]	TGI (LOX IMVI melanoma) [µM]	TGI (M14 melanoma) [µM]	TGI (MDA-MB-435) [µM]	TGI (NCI-H522 lung) [µM]	TGI (OVCAR-4 ovarian) [µM]	TGI (RPMI-8226 leukemia) [µM]	TGI (SNB-19 CNS) [µM]	TGI (SR leukemia) [µM]	TGI (U251 CNS) [µM]	TGI (K-562 leukemia) [µM]
COc1cc(/C=C2\CCC(C)C3=C2N=c2s/c(=C/c4ccc(Cl)cc4)c(=O)n2C3c2cc(OC)c(OC)c(OC)c2)cc(OC)c1OC (stereo not given)	> 100	> 100	> 100	> 100	> 100	> 100	> 100	> 100		> 100	> 100	> 100	> 100	> 100	> 100
C/C(=C/CC[C@](C)(OC1OC(CO)C(O)C(O)C1O)[C@H]1CC[C@]2(C)[C@@H]1CC[C@@H]1[C@@]3(C)CC[C@H](O)C(C)(C)[C@@H]3C[C@H](O)[C@]12CO)CO (stereo not given in full)	> 100	> 100	> 100	> 100	> 100	> 100	> 100	> 100	> 100	> 100	> 100	> 100	> 100	> 100	> 100
CC(=O)Nc1ccc(S(=O)(=O)c2nnc(NC(C)=O)s2)cc1	> 100	> 100	> 100	> 100	> 100	> 100	> 100	> 100	> 100	> 100	> 100	> 100	> 100	> 100	> 100
NC(=O)N/N=C\CC(O)(C(F)(F)Cl)C(F)(F)Cl	> 10	> 10	> 10	> 10	> 10	> 10	> 10	> 10	> 10	> 10	> 10	> 10	> 10	> 10	> 10
C/C(=N\O)c1ccc(OCc2cc(C(F)(F)F)cc(C(F)(F)F)c2)cc1	> 100	> 100	> 100	> 100	43.9	> 100	> 100	> 100	> 100	> 100		> 100	> 100	> 100	> 100
COC(=O)CN(CC(=O)NCCNC(=O)OC(C)(C)C)C1CCCCC1N(CC(=O)OC)CC(=O)OC (stereo not given)	> 100	> 100	> 100		> 100	> 100		> 100	> 100		> 100	> 100	> 100	> 100	> 100
Cc1cccc(N=Nc2c(C)nn(C(=O)CC(=O)Nc3ccc(Cl)cc3)c2C)c1	> 100	96.9	> 100	79.6	> 100	> 100	> 100	> 100	> 100	> 100	> 100	> 100	41.8	> 100	
Cc1nc2ccc(Cl)cc2c2c1CCN2c1ccc(F)cc1	> 100	> 100	> 100		> 100	78.1	51.7	63.6	> 100	> 100	65.1	> 100	73.8	> 100	> 100
Cn1c(-c2ccccc2)cc(-c2ccc3c(c2)OCO3)c1-c1ccsc1	> 100	> 100	> 100	> 100	> 100	> 100	> 100	> 100		> 100	> 100	> 100	> 100	> 100	> 100
COc1ccc2c(=O)c3ccoc3[nH]c2c1	> 100	> 100	> 100	> 100	> 100	> 100	> 100	> 100		> 100	> 100	> 100	> 100	> 100	> 100
Cc1ccc(S(=O)(=O)N(CCN)c2cc3c4c(c2)Oc2cccc5c2C4c2c(cccc2O3)O5)cc1	> 100	29	30.5	70.8	> 100	73.4	66.6	60.3			> 100	> 100	> 100	> 100	> 100
O=c1c2ccccc2n2c(-c3ccccc3O)nnc2n1-c1ccccc1	> 100	> 100	> 100	> 100	> 100	> 100	> 100	> 100	> 100	> 100		> 100	> 100	> 100	> 100
CCN(CC)CCCNc1ccc([N+](=O)[O-])c2nc3ccccc3c(N)c12		2.86	1.48	> 10	1.7	2.14	2.43	2.9		1.94	8.35	5.5	4.56		2.35
NC(=O)c1ncn(C2C=CC(CP(=O)(O)O)C2)c1N (stereo not given)	> 100	> 100	> 100	> 100	> 100	> 100	> 100	> 100		> 100	> 100	> 100	> 100	> 100	> 100
COc1c(Sc2c(SCSc3cnc4ccccc4c3Sc3cnc4ccccc4c3OC)cnc3ccccc23)cnc2ccccc12	> 100	> 100	> 100	84	> 100	> 100	> 100	> 100	> 100	> 100	> 100	77.3	56.7	> 100	

From PubChem BioAssay (NCI)
